The values below come from patent US12458640B2, “Pyrazolo[3,4-b]pyrazine SHP2 phosphatase inhibitors” (OTSUKA PHARMACEUTICAL CO., LTD., priority 2019, dated 2025).

Structures are written as SMILES. Structures can show the parent of a compound that is named as a salt.

The subject of experiment [1] is pERK. The experiment is described as follows: Cellular pERK Inhibition Assay (phospho-p44/42 MAPK sandwich ELISA). Format: cell-based. The following applies: Homo sapiens; HCC827 cells, 0.5 hours compound treatment; average where more than one data point. How it is done: Cellular pERK Inhibition Assay
HCC827 cells (ATCC, Manassas, USA) were seeded into 96-well plates at a density of 1×10^5 cells/well in RPMI medium supplemented with 10% FBS and incubated 24 h. Compounds were diluted first in DMSO and then into serum-free medium, before being added to cells in triplicate to give a final concentration of 0.1% DMSO. Plates were incubated at 37° C. for 0.5 hours in a humidified atmosphere of 5% CO2 in air.
Following compound treatment, medium was removed and cells were lysed by adding 50 μL of lysis buffer (Cell Signalling Technology, Beverly, USA) to each well. Plates were then incubated at room temperature for 25 minutes with shaking. pERK levels were measured in lysates using the PathScan® phospho-p44/42 MAPK (Thr202/Tyr204) sandwich ELISA (Cell Signalling Technology, Beverly, USA) as per kit instructions. Briefly, 50 μL of cell lysate was added to 50 μL of ELISA sample diluent in a 96-well ELISA plate and incubated overnight at 4° C. Following washing, 100 μL of detection antibody was added per well and the plates incubated for 1 hour at 37° C. Plates were washed again and incubated at 37° C. for 30 minutes with 100 μl of HRP-linked secondary antibody per well. After final washing, 100 μL per well of TMB substrate was added and plates incubated at 37° C. to develop colour. Colour development was stopped by the addition of 100 μL per well of stop solution. Plates were read at 450 nm on a SpectraMax Gemini reader (Molecular Devices, Uckfield, UK).
The average signal from blank wells (no cells added) was subtracted from the signals from each sample well. Levels of pERK were then expressed as “percent of control”, using DMSO treated samples as control. Dose response curves were generated using GraphPad Prism Version 6 (GraphPad Software, La Jolla, USA) and fitted using the four parameter logistic curve fit.
Background: An ELISA detects its analyte on a solid surface through an enzyme-linked reagent.

For experiment [2], the target named is SHP2 (Homo sapiens (Human), UniProt Q06124). In words: Shp2 Biochemical Assay (DiFMUP conversion). The following applies: for IC50: 10 pM SHP2, activating peptide pIRS1, DiFMUP substrate, average where more than one data point. How it is done: SHP2 activity was monitored by measuring the conversion of the surrogate substrate 6,8-difluoromethylumbelliferyl phosphate (DiFMUP) to the fluorescent product, 6,8-difluoromethylumbelliferone (DiFMU).
SHP2, sequence (Q06124 whole entry): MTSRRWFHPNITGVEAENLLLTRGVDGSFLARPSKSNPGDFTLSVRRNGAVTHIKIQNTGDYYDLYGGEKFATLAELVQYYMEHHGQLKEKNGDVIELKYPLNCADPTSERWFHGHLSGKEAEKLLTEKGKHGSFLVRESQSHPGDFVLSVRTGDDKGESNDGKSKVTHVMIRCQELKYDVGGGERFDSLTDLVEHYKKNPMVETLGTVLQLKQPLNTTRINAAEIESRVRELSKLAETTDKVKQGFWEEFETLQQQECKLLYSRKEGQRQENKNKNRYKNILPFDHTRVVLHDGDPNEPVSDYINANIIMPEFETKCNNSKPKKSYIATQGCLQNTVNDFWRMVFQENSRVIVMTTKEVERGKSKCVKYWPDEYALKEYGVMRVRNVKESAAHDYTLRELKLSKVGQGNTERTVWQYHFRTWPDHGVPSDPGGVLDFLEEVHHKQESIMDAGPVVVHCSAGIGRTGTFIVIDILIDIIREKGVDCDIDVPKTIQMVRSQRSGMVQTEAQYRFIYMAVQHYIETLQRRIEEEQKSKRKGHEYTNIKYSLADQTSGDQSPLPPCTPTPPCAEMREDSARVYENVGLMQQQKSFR
SHP2 was pre-incubated with test compounds and the activating peptide pIRS1 (H2N-LN(pY)IDLDLV-(PEG)8-LST(pY)ASINFQK-amide) for 30 min, prior to addition of the 6,8-difluoromethylumbelliferyl phosphate (DiFMUP), (Thermo Fisher D6567). Final assay concentrations were 10 pM SHP2, 0.25 μM pIRS1 peptide, 50 μM DiFMUP, 25 mM Bis-Tris propane, pH 7.0, 150 mM NaCl, 0.05% (v/v) Tween-20, 0.5 mM TCEP and 5% (v/v) DMSO. Rates of reaction were then measured over 30 min by monitoring fluorescence on a BMG Pherastar reader at excitation 360 nm/emission 450 nm. IC50 values were calculated from the normalized dose-response plots using four parameter logistic curve fit.

What is called IC50 is the concentration at which inhibition is half-maximal. `Cn1nc2ccc(-c3n[nH]c4nc(N5CCC6(CC5)C[C@H](F)C[C@H]6N)c(CO)nc34)c(Cl)c2c1Cl` [Example 20, {6-[(1R,3S)-1-amino-3-fluoro-8-azaspiro[4.5]decan-8-yl]-3-(3,4-dichloro-2-methyl-2H-indazol-5-yl)-1H-pyrazolo[3,4-b]pyrazin-5-yl}methanol]: the IC50 was found to be 4.1 nM in experiment [1] and 7.1 nM in experiment [2].

Consider `C[C@@H]1OCC2(CCN(c3nc4[nH]nc(-c5ccccc5Cl)c4nc3CO)CC2)[C@@H]1N` [Example 24, {6-[(3S,4S)-4-amino-3-methyl-2-oxa-8-azaspiro[4.5]decan-8-yl]-3-(2-chlorophenyl)-1H-pyrazolo[3,4-b]pyrazin-5-yl}methanol], for which the IC50 in experiment [1] amounted to 6.4 nM; in experiment [2] it was 11 nM. Regarding `Cc1nc2c(-c3ccc4ncc(N5CCC5)nc4c3Cl)n[nH]c2nc1N1CCC2(CC1)CO[C@@H](C)[C@H]2N` [Example 25, (3S,4S)-8-{3-[3-(azetidin-1-yl)-5-chloroquinoxalin-6-yl]-5-methyl-1H-pyrazolo[3,4-b]pyrazin-6-yl}-3-methyl-2-oxa-8-azaspiro[4.5]decan-4-amine], the values for the IC50 in experiment [1] and in experiment [2] were 28 nM and 24 nM, respectively. For `Cc1c2c(Cl)c(-c3n[nH]c4nc(N5CCC6(CC5)CO[C@@H](C)[C@H]6N)c(CO)nc34)ccc2nn1C` [Example 21, {6-[(3S,4S)-4-amino-3-methyl-2-oxa-8-azaspiro[4.5]decan-8-yl]-3-(4-chloro-2,3-dimethyl-2H-indazol-5-yl)-1H-pyrazolo[3,4-b]pyrazin-5-yl}methanol], the IC50 is 5.7 nM in experiment [1] and 15 nM in experiment [2]. In the case of `Cc1nc2c(-c3cccc(Cl)c3F)n[nH]c2nc1N1CCC2(CC1)CO[C@@H](C)[C@H]2N` [Example 19, (3S,4S)-8-[3-(3-chloro-2-fluorophenyl)-5-methyl-1H-pyrazolo[3,4-b]pyrazin-6-yl]-3-methyl-2-oxa-8-azaspiro[4.5]decan-4-amine], the IC50 stood at 100 nM in experiment [1] and 9.8 nM in experiment [2]. Consider `COc1cnc2ccc(-c3n[nH]c4nc(N5CCC6(CC5)COC[C@H]6N)c(C)nc34)c(Cl)c2n1` [Example 13, (4S)-8-[3-(5-chloro-3-methoxyquinoxalin-6-yl)-5-methyl-1H-pyrazolo[3,4-b]pyrazin-6-yl]-2-oxa-8-azaspiro[4.5]decan-4-amine], for which half-maximal inhibition in experiment [1] (IC50) required 95 nM. In experiment [2] (at 0.010 μM, read-out: SHP2 % inhibition at given concentration), the inhibition at 0.01 µM came to 35%.

In the case of `C[C@@H]1OCC2(CCN(c3nc4[nH]nc(-c5ccc6ncc(N(C)C)nc6c5Cl)c4nc3CO)CC2)[C@@H]1N` [Example 17, {6-[(3S,4S)-4-amino-3-methyl-2-oxa-8-azaspiro[4.5]decan-8-yl]-3-[5-chloro-3-(dimethylamino)quinoxalin-6-yl]-1H-pyrazolo[3,4-b]pyrazin-5-yl}methanol], the IC50 in experiment [1] is 5.3 nM; in experiment [2] it was 14 nM. As to `Cc1nc2c(-c3ccc4ncc(N(C)C)nc4c3Cl)n[nH]c2nc1N1CCC2(CC1)COC[C@H]2N` [Example 11, (4S)-8-{3-[5-chloro-3-(dimethylamino)quinoxalin-6-yl]-5-methyl-1H-pyrazolo[3,4-b]pyrazin-6-yl}-2-oxa-8-azaspiro[4.5]decan-4-amine], in experiment [1], the midpoint of inhibition, the IC50, lay at 32 nM. For the same compound, the inhibition at 0.03 µM in experiment [2] (at 0.030 μM, read-out: SHP2 % inhibition at given concentration) came out at 66%. As for `Cc1nc2c(-c3ccc4nn(C)cc4c3Cl)n[nH]c2nc1N1CCC2(CC1)COC[C@H]2N` [Example 3, (4S)-8-[3-(4-chloro-2-methyl-2H-indazol-5-yl)-5-methyl-1H-pyrazolo[3,4-b]pyrazin-6-yl]-2-oxa-8-azaspiro[4.5]decan-4-amine], the IC50 in experiment [1] was found to be 40 nM; in experiment [2] it was 5.6 nM. For `Cc1nc2c(-c3ccc4ncc(N5CCOCC5)nc4c3Cl)n[nH]c2nc1N1CCC2(CC1)CO[C@@H](C)[C@H]2N` [Example 26, (3S,4S)-8-{3-[5-chloro-3-(morpholin-4-yl)quinoxalin-6-yl]-5-methyl-1H-pyrazolo[3,4-b]pyrazin-6-yl}-3-methyl-2-oxa-8-azaspiro[4.5]decan-4-amine], the figures for the IC50 in experiment [1] and in experiment [2] were 18 nM and 28 nM, respectively. For the compound `COc1cnc2ccc(-c3n[nH]c4nc(N5CCC6(CCC[C@H]6N)CC5)c(C)nc34)c(Cl)c2n1` [Example 14, (1R)-8-[3-(5-chloro-3-methoxyquinoxalin-6-yl)-5-methyl-1H-pyrazolo[3,4-b]pyrazin-6-yl]-8-azaspiro[4.5]decan-1-amine], the results for the IC50 in experiment [1] and in experiment [2] were 150 nM and 13 nM, respectively. With `Cn1nc2ccc(-c3n[nH]c4nc(N5CCC6(CC5)CC(F)(F)C[C@H]6N)c(CO)nc34)c(Cl)c2c1Cl` [Example 16, {6-[(1R)-1-amino-3,3-difluoro-8-azaspiro[4.5]decan-8-yl]-3-(3,4-dichloro-2-methyl-2H-indazol-5-yl)-1H-pyrazolo[3,4-b]pyrazin-5-yl}methanol], the values for the IC50 in experiment [1] and in experiment [2] were 6.2 nM and 7 nM, respectively. For the compound `Cc1nc2c(-c3ccc4ncc(N(C)C)nc4c3Cl)n[nH]c2nc1N1CCC2(CCC[C@H]2N)CC1` [Example 12, 7-(6-[(1R)-1-amino-8-azaspiro[4.5]decan-8-yl]-5-methyl-1H-pyrazolo[3,4-b]pyrazin-3-yl}-8-chloro-N,N-dimethyl-quinoxalin-2-amine], the IC50 in experiment [1] was 33 nM; in experiment [2], 15 nM. Take `COc1cnc2ccc(-c3n[nH]c4nc(N5CCC6(CC5)CO[C@@H](C)[C@H]6N)c(CO)nc34)c(Cl)c2n1` [Example 22, {6-[(3S,4S)-4-amino-3-methyl-2-oxa-8-azaspiro[4.5]decan-8-yl]-3-(5-chloro-3-methoxyquinoxalin-6-yl)-1H-pyrazolo[3,4-b]pyrazin-5-yl}methanol]: the half-inhibitory concentration (IC50) in experiment [1] is 8.4 nM; in experiment [2], 11 nM. For the compound `Cc1nc2c(-c3ccc4nn(C)c(Cl)c4c3Cl)n[nH]c2nc1N1CCC2(CC1)COC[C@H]2N` [Example 4, (4S)-8-[3-(3,4-dichloro-2-methyl-2H-indazol-5-yl)-5-methyl-1H-pyrazolo[3,4-b]pyrazin-6-yl]-2-oxa-8-azaspiro[4.5]decan-4-amine], it took 5.3 nM to reach half-maximal inhibition in experiment [2] (IC50). On to `C[C@@H]1OCC2(CCN(c3nc4[nH]nc(-c5cccc(Cl)c5F)c4nc3CO)CC2)[C@@H]1N` [Example 23, {6-[(3S,4S)-4-amino-3-methyl-2-oxa-8-azaspiro[4.5]decan-8-yl]-3-(3-chloro-2-fluorophenyl)-1H-pyrazolo[3,4-b]pyrazin-5-yl}methanol], for which the IC50 in experiment [1] stood at 5.8 nM; in experiment [2] it was 5.4 nM. Regarding `Cc1nc2c(-c3ccc4ncc(N(C)C)nc4c3Cl)n[nH]c2nc1N1CCC2(CC1)CO[C@@H](C)[C@H]2N` [Example 10, (3S,4S)-8-{3-[5-chloro-3-(dimethylamino)quinoxalin-6-yl]-5-methyl-1H-pyrazolo[3,4-b]pyrazin-6-yl}-3-methyl-2-oxa-8-azaspiro[4.5]decan-4-amine], the values for the IC50 in experiment [1] and in experiment [2] were 17 nM and 19 nM, respectively.

Turning to `Cc1nc2c(-c3ccc4nn(C)cc4c3Cl)n[nH]c2nc1N1CCC2(CC1)C[C@@H](C(F)(F)F)C[C@H]2N` [Example 1, (1R,3R)-8-[3-(4-chloro-2-methyl-2H-indazol-5-yl)-5-methyl-1H-pyrazolo[3,4-b]pyrazin-6-yl]-3-(trifluoromethyl)-8-azaspiro[4.5]decan-1-amine hydrochloride], the IC50 amounted to 74 nM in experiment [1] and 20 nM in experiment [2].
